A short description of series [1]: Dissolving tests with ERr 731® in ethanol and glycerol. It is filed as physicochemical.
The nature of series [2]: In vivo accumulation of ERr 731® ingredients in dog plasma (100, 300, 1000 mg/kg/day). The settings on record: male and female dogs, ERr 731® 100, 300, 1000 mg/kg body weight/day, day 1. On the set-up: species or system dog (pure-bred beagles). The method, then:
(§1) These plasma samples were processed as follows: 500 μl of plasma were mixed with 25 μl of an internal standard working solution (2.5 ng/μl rhaponticin or rhapontigenin in methanol) and then mixed with 500 μl of isotonic NaCl solution and 2.5 ml of diethyl ether/butanol (9/1; v/v). After shaking and centrifugation (10 minutes at 4600 rpm), about 2 ml of the supernatant were removed and dried under a stream of nitrogen (at 60° C.). The pellet was taken up in 50 μl of methanol. Addition of 200 μl of distilled water was followed by renewed mixing, and 200 μl were pipetted into autosampler tubes (light-protected). 30 μl of the samples were injected for analysis into an LC-MS/MS system (PE Sciex API 3000). Chromatographic separation of the analytes took place on a Phenomenex Polymer X column with a gradient of an ammonium buffer solution and an acetonitrile/methanol mixture as mobile phase.
On day 1, 5 ml of blood were taken from the animals after 0, 0.5, 1, 2, 4, 8 and 24 hours in each case, and plasma was obtained. The analysis as described in section a) was carried out thereon in order to detect rhaponticin, deoxyrhaponticin, rhapontigenin, deoxyrhapontigenin, resveratrol and piceatannol in blood. The results of the test are depicted in FIG. 2a.

Series [3] deals with T1, estrogen receptor β (ERβ) (Homo sapiens, UniProt Q92731).
T1 construct: expressed in transfected cells; host or cells: HEC-1B human endometrial adenocarcinoma cells (no endogenous ERα or ERβ)
Briefly: ERβ/mC3-luciferase transactivation in transfected HEC-1B cells. It is filed as cell-based. The following applies: HEC-1B cells cotransfected with hERβ and mC3-Luc, 24 hours incubation. An excerpt: They therefore represent a possible way of investigating, in a human and endometrial context, ligand-dependent effects of substances on the transactivation mechanisms in relation to different receptor subtypes and different estrogen-responsive promoters.
An established ERβ/mC3-luciferase system was employed. For this purpose, HEC-1B cells were applied in 24-well plates with a density of 95 000 cells/well (in Dulbecco's modified Essential Medium (DMEM/F12)). The next day, they were cotransfected with an ERβ-containing construct (hERβ/pSG2) and a triple-ERE-containing promoter/luciferase construct (mC3-Luc/pGL2) (Hillisch et al. Dissecting physiological roles of estrogen receptor alpha and beta with potent selective ligands from structure-based design. Mol. Endocrinol. 2004 July; 18:1599-609). The transient transfection took place using DOTAP (N-[1-(2,3-dioleoyloxy)]-N,N,N-trimethylammoniumpropane methylsulfate, Roth) as described by the manufacturer.
After 24 hours, the cells were treated with appropriate concentrations of the substances or substance mixtures to be investigated. […] The incubation time was 24 hours. The cells were then lysed. The Luciferase Assay® kit (Promega) was used to determine the luciferase activity on the one hand, and the BCA® kit (Sigma) was used to determine the protein content on the other hand. […]

For series [4], the system named is transcription factor NF-κB. The settings on record: cited from earlier work.
The test system of series [5] is hormone-sensitive and -insensitive prostate cancer cells. The settings on record: pure resveratrol; cited from earlier work.
In series [6] the test system is AR-dependent gene expression. The following applies: depending on the concentration; cited from earlier work.
The test system of the next series is HL60 leukemia cells. The settings on record: cited from earlier work.
The test system of series [7] is bacteria of the human intestinal tract. The settings on record: cited from earlier work.
Series [8] in a line: Pharmacokinetics of ERr 731® ingredients in subject after oral intake (plasma, LC-MS/MS). It is filed as in vivo, human. The following applies: volunteer. The method, then: Subsequently, 10 ml of blood was taken at various times (as indicated in FIG. 1) and the plasma was obtained by centrifugation.
as §1

The mark [9] stands for this setting: Test A: 200 mg of dry extract in 50 ml of glycerol R.
Setting [10] is: Test B: 200 mg of dry extract in 50 ml of ethanol 30% R.
The mark [11] stands for this setting: Test C: 200 mg of dry extract in 50 ml of ethanol 50% R.
The mark [12] stands for this setting: Test D: 200 mg of dry extract in 50 ml of ethanol 86% R.

“Also recorded” adds a separate entry of the source.

T1 sequence (Q92731 whole entry): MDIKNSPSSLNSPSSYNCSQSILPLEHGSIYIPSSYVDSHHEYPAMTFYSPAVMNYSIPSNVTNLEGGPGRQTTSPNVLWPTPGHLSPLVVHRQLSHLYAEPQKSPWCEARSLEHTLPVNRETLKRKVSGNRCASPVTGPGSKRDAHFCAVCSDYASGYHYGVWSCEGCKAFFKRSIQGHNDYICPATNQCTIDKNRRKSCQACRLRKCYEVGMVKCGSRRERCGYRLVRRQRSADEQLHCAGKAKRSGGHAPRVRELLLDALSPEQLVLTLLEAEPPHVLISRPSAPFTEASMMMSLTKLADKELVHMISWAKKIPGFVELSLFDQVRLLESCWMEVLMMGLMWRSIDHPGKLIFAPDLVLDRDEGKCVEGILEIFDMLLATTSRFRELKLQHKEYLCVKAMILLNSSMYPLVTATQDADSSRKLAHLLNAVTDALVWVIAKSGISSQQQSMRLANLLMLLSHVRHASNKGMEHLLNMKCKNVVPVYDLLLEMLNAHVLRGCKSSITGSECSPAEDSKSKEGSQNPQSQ

As for `COc1ccc(C=Cc2cc(O)cc(O[C@@H]3O[C@H](CO)[C@@H](O)[C@H](O)[C@H]3O)c2)cc1` [deoxyrhaponticin], the content found dissolved amounted to 27.1% deoxyrhaponticin in [1] (setting [9]), 25.2% deoxyrhaponticin in series [1] (setting [10]), 29.0% deoxyrhaponticin in series [1] (setting [11]) and 29.5% deoxyrhaponticin in series [1] (setting [12]). Besides, the “dissolved, of theory” value is reported as “(90.6% of theory)” in series [1] (setting [9]), “(84.2% of theory)” in [1] (setting [10]), “(97.0% of theory)” in series [1] (setting [11]) and “(98.7% of theory)” in series [1] (setting [12]). The “accumulation (AUC 0-24 h) in dog plasma” value in [2] is “dose-dependent accumulation”.
`COc1ccc(C=Cc2cccc(O)c2)cc1O` [deoxyrhapontigenin, 3′,5-Dihydroxy-4′-methoxystilbene]: the “activation of ERβ (relative luciferase activity vs DMSO control)” value in series [3] is “activate the ERβ dose-dependently; also recorded: effective only at higher concentrations”. In series [2], the “accumulation (AUC 0-24 h) in dog plasma” value was “undetectable”.
As to `Oc1cc(O)cc(/C=C/c2ccc(O)c(O)c2)c1` [piceatannol], the “effect on transcription factor NF-κB” value in series [4] was “inhibitory effect”.
As for `Oc1ccc(C=Cc2cc(O)cc(O)c2)cc1` [resveratrol], the “apoptotic effect on prostate cancer cells” value in [5] is reported as “apoptotic effect”. For the same compound, the AR-dependent gene expression entry in [6] was “an increase or inhibition of AR-dependent gene expression was observed”. Further, the “apoptotic effect on HL60 leukemia cells” value in the series with HL60 leukemia cells is “apoptotic effect”.
For the compound `COc1ccc(C=Cc2cc(O)cc(O[C@@H]3O[C@H](CO)[C@@H](O)[C@H](O)[C@H]3O)c2)cc1O` [rhaponticin, 3,3′,5-Trihydroxy-4′-methoxystilbene 3-O-β-D-glucopyranoside], the content found dissolved in series [1] (setting [9]) was 55.1% rhaponticin; in [1] (setting [10]) it was 52.2% rhaponticin; in [1] (setting [11]) it was 58.8% rhaponticin; in series [1] (setting [12]), 59.8% rhaponticin. Moreover, the “dissolved, of theory” value in series [1] (setting [9]) is on record as “(89.0% of theory)”; in series [1] (setting [10]), “(84.3% of theory)”; in series [1] (setting [11]), “(95.0% of theory)”; in series [1] (setting [12]), “(96.6% of theory)”. For the same compound, the “degradation by intestinal bacteria” value in series [7] is on record as “degraded by bacteria of the human intestinal tract to rhapontigenin”. Besides, the “accumulation (AUC 0-24 h) in dog plasma” value in series [2] is given as “dose-dependent accumulation”. Further, in [4], the “effect on transcription factor NF-κB” value is “inactive”. Besides, the “time of maximum in the blood” value in [8] (oral 40 mg ERr 731®) lay within 3 to 4 h. Besides, in series [8] (oral 10 tablets = 40 mg ERr 731®), the “detection in the blood (plasma)” value was “detected in the blood”.

The record behind these values is patent US8268792B2, “Use of an active ingredient combination that contains hydroxystilbene for preventing and/or treating diseases” (Carl-Friedrich Spaich, priority 2005, dated 2012).
